Measurements from ChEMBL document CHEMBL1154552, “Two new prenylated 3-benzoxepin derivatives as cyclooxygenase inhibitors from Perilla frutescens var. acuta” (J Nat Prod, 2000).

How the values were obtained:
[1] = target: T1, Prostaglandin G/H synthase 1 (Ovis aries, UniProt P05979); assay: Inhibition of COX1 in ram seminal vesicle microsomes assessed as reduction of PGE2 formation; parameters: species or system Microsome
T1 sequence (P05979 whole entry): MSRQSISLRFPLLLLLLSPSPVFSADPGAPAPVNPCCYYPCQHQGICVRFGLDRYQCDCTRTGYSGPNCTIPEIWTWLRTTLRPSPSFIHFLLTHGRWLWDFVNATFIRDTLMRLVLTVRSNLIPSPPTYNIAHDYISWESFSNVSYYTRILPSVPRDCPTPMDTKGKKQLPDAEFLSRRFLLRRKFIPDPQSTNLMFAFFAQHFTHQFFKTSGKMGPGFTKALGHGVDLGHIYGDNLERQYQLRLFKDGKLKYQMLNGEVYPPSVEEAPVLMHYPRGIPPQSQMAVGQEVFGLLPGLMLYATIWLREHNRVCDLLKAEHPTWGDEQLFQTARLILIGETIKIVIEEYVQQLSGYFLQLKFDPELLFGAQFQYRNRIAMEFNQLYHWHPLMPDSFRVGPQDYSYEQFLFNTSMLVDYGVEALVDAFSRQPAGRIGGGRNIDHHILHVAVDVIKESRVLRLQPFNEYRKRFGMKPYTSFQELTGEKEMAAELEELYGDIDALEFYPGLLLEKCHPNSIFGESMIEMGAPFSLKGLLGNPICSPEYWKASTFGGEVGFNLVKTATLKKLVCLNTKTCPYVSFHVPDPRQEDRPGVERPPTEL

[2] = target: T2, Prostaglandin G/H synthase 1 (Ovis aries) (UniProt P05979); conditions: Seminal vesicle, Microsome, 5 uM
T2 sequence (whole entry): T1 sequence (P05979 whole entry)
Description: Inhibition of COX1 in ram seminal vesicle microsomes assessed as reduction of PGE2 formation at 5 uM

COc1cc2c(c3c1C=COC=C3)O[C@@H](C(C)(C)O)C2 [PERILLOXIN]
IC50 [1]: 23.2 µM

COc1ccc2c(c1)c(CC(=O)O)c(C)n2C(=O)c1ccc(Cl)cc1
inhibition [2]: 0.2%

COc1cc2cc(C(C)(C)O)oc2c2c1C=COC=C2
IC50 [1]: 30.4 µM
